Legend:
Assay type in all cases: in vivo
Conditions in all cases: treatment dosage 320 g/ha
fig-leafed goosefoot [1] = test: Test Example 4: weedkilling efficacy by foliar treatment; M: fig-leafed goosefoot
Procedure, shortened: (§1)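 Seeds are spot-sown into sterilized diluvial soil and covered with about 1.5 cm of soil. After 14 days' greenhouse growth at 25 to 30° C, plants are sprayed on stems and leaves with diluted emulsion at the stated g/ha rate, then scored at 3 weeks.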

catchweed [2] = test: Test Example 3: weedkilling efficacy through soil treatment; O: catchweed
Procedure, shortened: (§2)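 Crop and weed responses were judged three weeks after a uniform surface spray of the water-diluted emulsion at the given g/ha rate. Seeds sat beneath about 1.5 cm of sterilized diluvial soil, and boxes stood in a greenhouse at 25 to 30° C.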

catchweed [3] = test: Test Example 4: weedkilling efficacy by foliar treatment; O: catchweed
Procedure, shortened: as §1

soybean [4] = test: Test Example 3: soil treatment, effect on crop; d: soybean
Procedure, shortened: as §2

oval-leafed pondweed [5] = test: Test Example 1: weedkilling efficacy, preemergent weed treatment in the submerged state; C: oval-leafed pondweed
Procedure, shortened: (§3)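 Submerged pre-emergence treatment, water-surface application of compound emulsion at g/ha dosages; 4 cm flooded alluvial soil, weeds sown and 2.5-leaf rice transplanted same day. Rated after 3 weeks, greenhouse.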

Indian mallow [6] = test: Test Example 3: weedkilling efficacy through soil treatment; K: Indian mallow
Procedure, shortened: as §2

common wind-grass [7] = test: Test Example 3: weedkilling efficacy through soil treatment; J: common wind-grass
Procedure, shortened: as §2

corn [8] = test: Test Example 3: soil treatment, effect on crop; c: corn
Procedure, shortened: as §2

Italian ryegrass [9] = test: Test Example 3: weedkilling efficacy through soil treatment; I: Italian ryegrass
Procedure, shortened: as §2

beet [10] = test: Test Example 3: soil treatment, effect on crop; f: beet
Procedure, shortened: as §2

oval-leafed pondweed [11] = test: Test Example 2: weedkilling efficacy, growth period weed treatment in the submerged state; C: oval-leafed pondweed
Procedure, shortened: (§4)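 Seedlings at 1-2 leaves in 4 cm-deep submerged alluvial soil received emulsion formulations on the water surface, dosed per hectare; effects were judged 3 weeks on.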

Indian mallow [12] = test: Test Example 4: weedkilling efficacy by foliar treatment; K: Indian mallow
Procedure, shortened: as §1

Italian ryegrass [13] = test: Test Example 4: weedkilling efficacy by foliar treatment; I: Italian ryegrass
Procedure, shortened: as §1

transplanted rice = test: Test Example 1: preemergent weed treatment in the submerged state, effect on crop; a: transplanted rice
Procedure, shortened: as §3

redroot pigweed [14] = test: Test Example 4: weedkilling efficacy by foliar treatment; L: redroot pigweed
Procedure, shortened: as §1

chickweed [15] = test: Test Example 3: weedkilling efficacy through soil treatment; N: chickweed
Procedure, shortened: as §2

corn [16] = test: Test Example 4: foliar treatment, effect on crop; c: corn
Procedure, shortened: as §1

beet [17] = test: Test Example 4: foliar treatment, effect on crop; f: beet
Procedure, shortened: as §1

fig-leafed goosefoot [18] = test: Test Example 3: weedkilling efficacy through soil treatment; M: fig-leafed goosefoot
Procedure, shortened: as §2

wild oat [19] = test: Test Example 3: weedkilling efficacy through soil treatment; G: wild oat
Procedure, shortened: as §2

barnyard grass [20] = test: Test Example 2: weedkilling efficacy, growth period weed treatment in the submerged state; A: barnyard grass
Procedure, shortened: as §4

barnyard grass [21] = test: Test Example 1: weedkilling efficacy, preemergent weed treatment in the submerged state; A: barnyard grass
Procedure, shortened: as §3

bulrush [22] = test: Test Example 1: weedkilling efficacy, preemergent weed treatment in the submerged state; B: bulrush
Procedure, shortened: as §3

bulrush [23] = test: Test Example 2: weedkilling efficacy, growth period weed treatment in the submerged state; B: bulrush
Procedure, shortened: as §4

birds-eye speedwell = test: Test Example 4: weedkilling efficacy by foliar treatment; p: birds-eye speedwell
Procedure, shortened: as §1

wheat [24] = test: Test Example 3: soil treatment, effect on crop; e: wheat
Procedure, shortened: as §2

black-grass [25] = test: Test Example 3: weedkilling efficacy through soil treatment; H: black-grass
Procedure, shortened: as §2

chickweed [26] = test: Test Example 4: weedkilling efficacy by foliar treatment; N: chickweed
Procedure, shortened: as §1

redroot pigweed [27] = test: Test Example 3: weedkilling efficacy through soil treatment; L: redroot pigweed
Procedure, shortened: as §2

wheat [28] = test: Test Example 4: foliar treatment, effect on crop; e: wheat
Procedure, shortened: as §1

wild oat [29] = test: Test Example 4: weedkilling efficacy by foliar treatment; G: wild oat
Procedure, shortened: as §1

soybean [30] = test: Test Example 4: foliar treatment, effect on crop; d: soybean
Procedure, shortened: as §1

black-grass [31] = test: Test Example 4: weedkilling efficacy by foliar treatment; H: black-grass
Procedure, shortened: as §1

common wind-grass [32] = test: Test Example 4: weedkilling efficacy by foliar treatment; J: common wind-grass
Description: Testing of Weedkilling Efficacy by Foliar Treatment
Sterilized diluvial soil was introduced into 21 cm long, 13 cm wide, 7 cm deep plastic boxes, and seeds of crabgrass, green foxtail, barnyard grass, wild oat, black-grass, Italian ryegrass, common wind-grass, Indian mallow, redroot pigweed, fig-leafed goosefoot, chickweed, catchweed, birds-eye speedwell, corn, soybean, rice, wheat, beet and rapeseed were each spot-sown, and covered with about 1.5 cm of soil, then the plants were grown in a greenhouse at 25 to 30° C.
After they had grown for 14 days, emulsions of compounds of the present invention prepared according to compounding example 2 were diluted with water to give the specified dosages, and applied uniformly onto the stem and leaf parts with a small sprayer. 3 weeks after the pesticide treatment the effect on each type of plant was investigated on the basis of the assessment criteria of test example 1.
A: barnyard grass, B: bulrush, C: oval-leafed pondweed, D: crabgrass, E: green foxtail, F: barnyard grass, G: wild oat, H: black-grass, I: Italian ryegrass, J: common wind-grass, K: Indian mallow, L: redroot pigweed, M: fig-leafed goosefoot, N: chickweed, O: catchweed, p: birds-eye speedwell, a: transplanted rice, b: directly sown rice, c: corn, d: soybean, e: wheat, f: beet, g: rapeseed
Further, pesticide dosage (g/ha) indicates the concentration regulated such that treatment was with only the stated number of grams (g), when calculated per hectare (ha).

COC(=O)c1ccnc(NC(=O)C(C)(C)N2COC(C)=C(c3ccccc3)C2=O)c1 [B-2-61]
M (fig-leafed goosefoot) weedkilling efficacy grade (fig-leafed goosefoot [1]): 0 (weed kill ratio 5% or less (practically no effect))
O (catchweed) weedkilling efficacy grade (catchweed [2]): 0 (weed kill ratio 5% or less (practically no effect))
O (catchweed) weedkilling efficacy grade (catchweed [3]): 0 (weed kill ratio 5% or less (practically no effect))
d (soybean) effect on crop grade (soybean [4]): 0 (weed kill ratio 5% or less (practically no effect))
C (oval-leafed pondweed) weedkilling efficacy grade (oval-leafed pondweed [5]): 4 (weed kill ratio 70% or more, less than 90%)
K (Indian mallow) weedkilling efficacy grade (Indian mallow [6]): 0 (weed kill ratio 5% or less (practically no effect))
J (common wind-grass) weedkilling efficacy grade (common wind-grass [7]): 5 (weed kill ratio 90% or more, (practically complete withering))
c (corn) effect on crop grade (corn [8]): 0 (weed kill ratio 5% or less (practically no effect))
I (Italian ryegrass) weedkilling efficacy grade (Italian ryegrass [9]): 2 (weed kill ratio 20% or more, less than 40%)
f (beet) effect on crop grade (beet [10]): 0 (weed kill ratio 5% or less (practically no effect))
C (oval-leafed pondweed) weedkilling efficacy grade (oval-leafed pondweed [11]): 2 (weed kill ratio 20% or more, less than 40%)
K (Indian mallow) weedkilling efficacy grade (Indian mallow [12]): 0 (weed kill ratio 5% or less (practically no effect))
I (Italian ryegrass) weedkilling efficacy grade (Italian ryegrass [13]): 0 (weed kill ratio 5% or less (practically no effect))
a (transplanted rice) effect on crop grade (transplanted rice): 0 (weed kill ratio 5% or less (practically no effect))
L (redroot pigweed) weedkilling efficacy grade (redroot pigweed [14]): 0 (weed kill ratio 5% or less (practically no effect))
N (chickweed) weedkilling efficacy grade (chickweed [15]): 0 (weed kill ratio 5% or less (practically no effect))
c (corn) effect on crop grade (corn [16]): 0 (weed kill ratio 5% or less (practically no effect))
f (beet) effect on crop grade (beet [17]): 2 (weed kill ratio 20% or more, less than 40%)
M (fig-leafed goosefoot) weedkilling efficacy grade (fig-leafed goosefoot [18]): 0 (weed kill ratio 5% or less (practically no effect))
G (wild oat) weedkilling efficacy grade (wild oat [19]): 0 (weed kill ratio 5% or less (practically no effect))
A (barnyard grass) weedkilling efficacy grade (barnyard grass [20]): 0 (weed kill ratio 5% or less (practically no effect))
A (barnyard grass) weedkilling efficacy grade (barnyard grass [21]): 0 (weed kill ratio 5% or less (practically no effect))
B (bulrush) weedkilling efficacy grade (bulrush [22]): 0 (weed kill ratio 5% or less (practically no effect))
B (bulrush) weedkilling efficacy grade (bulrush [23]): 2 (weed kill ratio 20% or more, less than 40%)
P (birds-eye speedwell) weedkilling efficacy grade (birds-eye speedwell): 2 (weed kill ratio 20% or more, less than 40%)
e (wheat) effect on crop grade (wheat [24]): 0 (weed kill ratio 5% or less (practically no effect))
H (black-grass) weedkilling efficacy grade (black-grass [25]): 4 (weed kill ratio 70% or more, less than 90%)
N (chickweed) weedkilling efficacy grade (chickweed [26]): 0 (weed kill ratio 5% or less (practically no effect))
L (redroot pigweed) weedkilling efficacy grade (redroot pigweed [27]): 0 (weed kill ratio 5% or less (practically no effect))
e (wheat) effect on crop grade (wheat [28]): 0 (weed kill ratio 5% or less (practically no effect))
G (wild oat) weedkilling efficacy grade (wild oat [29]): 0 (weed kill ratio 5% or less (practically no effect))
d (soybean) effect on crop grade (soybean [30]): 0 (weed kill ratio 5% or less (practically no effect))
H (black-grass) weedkilling efficacy grade (black-grass [31]): 0 (weed kill ratio 5% or less (practically no effect))
J (common wind-grass) weedkilling efficacy grade (common wind-grass [32]): 1 (weed kill ratio 5% or more, less than 20%)
